Measured values taken from patent US7781175B2, “Method of screening compounds which alter the binding properties of GPR39, and homologs thereof, to bile acid” (Takeda Pharmaceutical Company Limited, priority 2004, dated 2010).

Legend:
Assay type in all cases: cell-based
[1] = system: GPR39-expressed cell line UM-UC-3; experiment: IL-8 secretion from GPR39-expressed cell line UM-UC-3, quantified by EIA; settings: 500 μM, 4 hours
Method: Using the GPR39-expressed cell line UM-UC-3 (Dainippon Pharmaceutical), effects by the addition of bile acids as the GPR39 agonist were examined.
On the day before assay, UM-UC-3 was cultured until preconfluent in MINIMUM ESSENTIAL MEDIUM (WITH EARLE'S SALTS, WITH L-GLUTAMINE) (GIBCO BRL) supplemented with 10% FCS and MEM NON-ESSENTIAL AMINO ACIDS (GIBCO BRL), washed with PBS, detached using trypsin, centrifuged for recovery and then suspended in a medium to 3×10^6 cells/ml. After a 100 μl aliquot was dispensed into each well of a 96-well plate (Falcon), followed by incubation overnight in a CO2 incubator.
On the assay day, after the medium for the cells prepared on the preceding day was removed, the cells were washed with MEM NON-ESSENTIAL AMINO ACIDS-containing MINIMUM ESSENTIAL MEDIUM (WITH EARLE'S SALTS, WITH L-GLUTAMINE). A […] was further charged in each well, followed by incubation […] at 37° C. in a CO2 incubator. Subsequently, a 100 μl aliquot of MEM NON-ESSENTIAL AMINO ACIDS-containing MINIMUM ESSENTIAL MEDIUM (WITH EARLE'S SALTS, WITH L-GLUTAMINE), to which various test samples were added, was dispensed into each well, followed by incubation […]. After the culture supernatant was recovered, IL-8 contained in each sample was quantified by EIA (Amersham).

GPR39 (SEQ ID NO: 1) = biological target: T1, GPR39 (SEQ ID NO: 1) (Homo sapiens, UniProt O43194); experiment: SRE-luciferase reporter assay for ligand activity in GPR39-expressed HeLa cells; settings: for Increased Luciferase Activity (cps) by TLCA in GPR39-Expressed Cells: GPR39-expressed HeLa cells, 4 hours, 0 μM baseline 3574
T1 construct: expressed in transfected cells; host or cells: HeLa cells, transient transfection (vector pAKKO-111H)
T1 sequence (O43194 1-453): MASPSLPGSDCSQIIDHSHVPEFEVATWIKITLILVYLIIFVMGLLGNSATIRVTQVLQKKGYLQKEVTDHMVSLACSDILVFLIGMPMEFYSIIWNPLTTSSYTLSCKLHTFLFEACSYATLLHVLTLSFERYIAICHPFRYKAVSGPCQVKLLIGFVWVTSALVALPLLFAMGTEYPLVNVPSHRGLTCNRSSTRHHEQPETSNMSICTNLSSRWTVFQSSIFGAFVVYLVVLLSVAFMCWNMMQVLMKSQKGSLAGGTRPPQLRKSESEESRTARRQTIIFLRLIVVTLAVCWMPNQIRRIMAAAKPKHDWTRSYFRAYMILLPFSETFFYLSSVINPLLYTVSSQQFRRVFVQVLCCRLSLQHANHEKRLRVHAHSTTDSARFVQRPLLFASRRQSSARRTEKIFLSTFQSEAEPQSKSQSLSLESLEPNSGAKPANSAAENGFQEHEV
Method: (§1) First, cDNA encoding G protein-coupled receptor protein, the GPR39 (SEQ ID NO: 1) prepared by the method publicly known was inserted into pAKKO-111H (the same plasmid vector as pAKKO-1.111H described in Biochem. Biophys. Acta, Hinuma, S. et al., 1219, 251-259, 1994). Using the expression plasmid for animal cells thus obtained, Escherichia coli JM109 was transfected and the colonies obtained were isolated and cultured. Thereafter, large scale plasmid preparation was carried out using QIAGEN Plasmid Maxi Kit (Qiagen). Furthermore, the pSRE-Luc reporter plasmid (Invitrogen) ligated with a luciferase gene as a reporter at the downstream of serum response element (SRE), and expression vector plasmids for human GαoA, human Gβ1 and human Gγ2, which are a kind of G proteins, were prepared in a similar manner.
(§2) HeLa cells as host cells for transfecting the G protein-coupled receptor protein expression plasmid and the reporter plasmid were plated on a 384-well assay plate (COSTAR 3704) at 4000 cells/well in a culture volume of 25 μl, followed by incubation overnight. The medium used was DMEM (Invitrogen) supplemented with 10% fetal calf serum and 1% MEM non-essential amino acids solution (DMEM/NEAA).
(§3) Each plasmid was added to and mixed with 240 μl of Opti-MEM-I (Invitrogen) in a proportion of 1 μl of the protein expression plasmid or, for comparison, expression vector pAKKO-111H without DNA encoding the receptor protein in place of an expression plasmid of the receptor, 9 μl of the reporter plasmid and 1 μl each of the G protein-coupled receptor protein expression plasmid GαoA, Gβ1 or Gγ2. […]
(§4) The HeLa cells prepared in EXAMPLE 1 were washed twice with fetal calf serum-free DMEM/NEAA (assay medium) and then cultured in the same assay medium at 37° C. under 5% CO2 for 2 hours. […] After the cells were lysed and thoroughly mixed with the substrate, the chemiluminescence level corresponding to the expression induction level of the reporter gene in each well was measured on the plate reader (EnVision™, Perkin-Elmer).

[2] = system: pAKKO-111H transfected cells (control); experiment: SRE-luciferase reporter assay in pAKKO-111H transfected HeLa cells for control; settings: for Luciferase Activity (cps), pAKKO-111H (control): pAKKO-111H transfected HeLa cells, 4 hours, 0 μM baseline 2042
Method: as §1, §2, §3, §4

Row | SMILES | IL-8 accumulated in culture supernatant compared to absence of the conjugate [1] | luciferase activity in the GPR39-expressed cells (in words) (GPR39 (SEQ ID NO: 1); TLCA 5 μM or 20 μM) | Increased Luciferase Activity (cps) by TLCA in GPR39-Expressed Cells (GPR39 (SEQ ID NO: 1); TLCA level 5 μM) | Increased Luciferase Activity (cps) by TLCA in GPR39-Expressed Cells (GPR39 (SEQ ID NO: 1); TLCA level 20 μM) | luciferase activity in the pAKKO-111H transfected cells for control (in words) ([2]; TLCA added) | Luciferase Activity (cps), pAKKO-111H (control) ([2]; TLCA level 5 μM) | Luciferase Activity (cps), pAKKO-111H (control) ([2]; TLCA level 20 μM)
1 | C[C@H](CCC(=O)NCCS(=O)(=O)O)[C@H]1CC[C@H]2[C@@H]3CC[C@@H]4C[C@H](O)CC[C@]4(C)[C@H]3C[C@H](O)[C@]12C [taurine conjugate of deoxycholic acid] | approximately twice as much | – | – | – | – | – | –
2 | C[C@H](CCC(=O)NCCS(=O)(=O)[O-])[C@H]1CC[C@H]2[C@@H]3CC[C@@H]4C[C@H](O)CC[C@]4(C)[C@H]3CC[C@]12C.[Na+] [TLCA, sodium taurolithocholate] | – | increased luciferase activity | 5977 cps | 8114 cps | any marked increase of the activity was not detected | 2214 cps | 2542 cps
